The results in this text go back to patent publication US8575091B1, “Amylin analogues and pharmaceutical compositions thereof” (Novo Nordisk A/S, priority 2012, dated 2013).

Structures are written as SMILES. Like-named read-outs stand apart in the source and are kept apart here. Numbered stars: 1 amine (or outer) side, 2 acyl side, 3 side chain; on linkers, the order of the positions; unused ones are H or OH. Bridge positions count the residues as written; N and C are the ends. Side chains are listed from the residue outwards. Peptide text beside a SMILES is read from it. * marks the point of attachment. C20 diacid = O=C(O)CCCCCCCCCCCCCCCCCCC(=O)*; γGlu = O=C(O)[C@H](CCC(=O)[*:2])N[*:1]; AEEA = NCCOCCOCC(=O)O

Test [1] has as its target T1, human amylin receptor (amylin 3(a) receptor: human calcitonin receptor + RAMP-3) (Homo sapiens, UniProt O60896+P30988).
T1 construct: expressed in transfected cells
T1 sequence (P30988 25-474): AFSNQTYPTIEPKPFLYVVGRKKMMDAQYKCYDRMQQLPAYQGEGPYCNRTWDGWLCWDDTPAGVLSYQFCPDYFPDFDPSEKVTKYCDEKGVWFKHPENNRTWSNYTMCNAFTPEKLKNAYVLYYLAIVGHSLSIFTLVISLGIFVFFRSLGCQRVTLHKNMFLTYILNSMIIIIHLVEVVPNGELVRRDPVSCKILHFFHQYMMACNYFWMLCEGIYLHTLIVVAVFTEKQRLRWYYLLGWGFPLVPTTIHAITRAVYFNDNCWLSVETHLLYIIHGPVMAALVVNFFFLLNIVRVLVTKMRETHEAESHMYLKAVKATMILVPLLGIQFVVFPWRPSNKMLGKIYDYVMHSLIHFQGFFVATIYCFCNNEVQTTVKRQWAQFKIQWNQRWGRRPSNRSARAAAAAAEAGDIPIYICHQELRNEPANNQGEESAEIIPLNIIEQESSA
T1 sequence (O60896 24-148 partner): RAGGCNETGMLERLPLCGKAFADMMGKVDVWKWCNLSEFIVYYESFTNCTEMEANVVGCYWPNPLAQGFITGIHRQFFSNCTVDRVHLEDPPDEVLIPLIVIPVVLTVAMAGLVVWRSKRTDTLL
Description: Assay (II)a functional assay, human amylin receptor (CRE luciferase, BHK cells). It counts as cell-based. The conditions noted are these: for EC50: read-out: hAmylin-R funct. EC50.

Test [2] addresses T2, human calcitonin receptor (Homo sapiens, UniProt P30988).
T2 construct: expressed in transfected cells
T2 sequence (P30988 25-474): T1 sequence (P30988 25-474)
Put plainly: Assay (II)a functional assay, human calcitonin receptor (CRE luciferase, BHK cells).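 Also: luminescence from a CRE-driven luciferase reporter, read by single photon counting after cells were exposed to test samples for 3 h at 37 °C under 5% CO2.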 The test is classed as cell-based. The note with it: read-out: hCTR funct. EC50.

In test [3] the target is T3, human amylin receptor (Homo sapiens, UniProt O60896+P30988).
T3 construct: expressed in transfected cells
T3 sequence (P30988 25-474): T1 sequence (P30988 25-474)
T3 sequence (O60896 24-148 partner): T1 sequence (O60896 24-148 partner)
Description: Assay (V) binding to the human amylin receptor (SPA, 125I-rat amylin). The conditions noted are these: for IC50: human amylin receptor membranes, SPA, read-out: hAmylin-R bind IC50. The method in brief:
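IC50, taken as receptor affinity, came from one-site binding competition analysis of scintillation proximity counts. Amylin 3(a)/CRE-luc cell membranes (35 ng/μL final) were mixed with SPA beads (0.05 mg/well) in 50 mM Hepes pH 7.4 containing CaCl2, MgCl2, 0.1% OA and 0.02% Tween20.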

Test [4] has as its target T2, human calcitonin receptor. Description: Assay (VII) binding to the human calcitonin receptor (SPA, 125I-Calcitonin).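 Also: cell membranes coupled to SPA beads, competitive displacement read by scintillation counting, IC50 derived from a one-site competition fit as a measure of receptor affinity.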 The conditions noted are these: read-out: hCTR bind IC50.
Where [5] appears, read: Table 6, human functional selectivity (hCTR EC50 / hAmylin-R EC50).
Where [6] appears, read: Table 6a, human functional selectivity (hCTR EC50 / hAmylin-R EC50), at least 5.
[7] abbreviates: Table 6j, hCTR funct. EC50 / hAmylin-R funct. EC50.
Setting [8] is: Table 6j, human amylin receptor functional.
Where [9] appears, read: Table 6k, hCTR funct. EC50 / hAmylin-R funct. EC50.
The mark [10] stands for this setting: human binding ratio, included for comparison.
The mark [11] stands for this setting: functional assay, human amylin receptor.

Turning to `CC[C@H](C)[C@H](NC(=O)[C@H](C)NC(=O)CNC(=O)[C@H](Cc1ccccc1)NC(=O)[C@H](CC(N)=O)NC(=O)[C@@H]1CCCN1C(=O)[C@H](CO)NC(=O)[C@H](CO)NC(=O)[C@H](Cc1c[nH]cn1)NC(=O)[C@H](CCCNC(=N)N)NC(=O)[C@H](CC(C)C)NC(=O)[C@H](Cc1ccccc1)NC(=O)CNC(=O)[C@H](C)NC(=O)[C@H](CC(C)C)NC(=O)[C@H](CCCNC(=N)N)NC(=O)[C@H](CCC(N)=O)NC(=O)[C@@H](NC(=O)[C@H](C)NC(=O)[C@@H]1CSSC[C@H](NC(=O)[C@@H](N)CCCCNC(=O)COCCOCCNC(=O)CC[C@H](NC(=O)CCCCCCCCCCCCCCCCCCC(=O)O)C(=O)O)C(=O)N[C@@H](CC(N)=O)C(=O)N[C@@H]([C@@H](C)O)C(=O)N[C@@H](C)C(=O)N[C@@H]([C@@H](C)O)C(=O)N1)[C@@H](C)O)C(=O)N1CCC[C@H]1C(=O)N[C@@H](CO)C(=O)N[C@@H](CO)C(=O)N[C@H](C(=O)N1CCC[C@H]1C(=O)N[C@H](C(=O)NCC(=O)N[C@@H](CO)C(=O)N[C@@H](CC(N)=O)C(=O)N[C@H](C(=O)N[C@@H](Cc1ccc(O)cc1)C(N)=O)[C@@H](C)O)C(C)C)[C@@H](C)O` [Example 71] (H-K([AEEA-γGlu-C20 diacid])CNTATCATQRLAGFLRHSSPNFGAIPSSTPVGSNTY-NH2; disulfide 2-7), the “Ratio hCT/hAmylin funct.” value in test [1] (setting [5]), in test [1] (setting [6]), in test [1] (setting [7]) and in test [1] (setting [9]) was 9.4 in each case. For the same compound, the EC50 in test [1] (setting [8]) was 0.056 nM; in test [2] it was 0.527 nM. The “Ratio hCT/hAmylin binding” value in test [3] (Table 7b, human calcitonin receptor binding IC50 divided by human amylin receptor binding IC50) stood at 32.0; in test [3] (Table 7c, human calcitonin receptor binding IC50 divided by human amylin receptor binding IC50) it was 32.0; in test [3] (setting [10]), 32.0. Also, the IC50 in test [3] came out at 0.048 nM; in test [4], 1.54 nM.
In the case of `CC[C@H](C)[C@H](NC(=O)[C@H](C)NC(=O)CNC(=O)[C@H](Cc1ccccc1)NC(=O)[C@H](CC(N)=O)NC(=O)[C@@H]1CCCN1C(=O)[C@H](CO)NC(=O)[C@H](CO)NC(=O)[C@H](Cc1c[nH]cn1)NC(=O)[C@H](CCCNC(=N)N)NC(=O)[C@H](CC(C)C)NC(=O)[C@H](Cc1ccccc1)NC(=O)[C@H](CCC(=O)O)NC(=O)[C@H](C)NC(=O)[C@H](CC(C)C)NC(=O)[C@H](CCCNC(=N)N)NC(=O)[C@H](CCC(N)=O)NC(=O)[C@@H](NC(=O)[C@H](C)NC(=O)[C@@H]1CSSC[C@H](NC(=O)[C@H](CCCCN)NC(=O)CC[C@H](NC(=O)CC[C@H](NC(=O)CCCCCCCCCCCCCCCCCCC(=O)O)C(=O)O)C(=O)O)C(=O)N[C@@H](CC(N)=O)C(=O)N[C@@H]([C@@H](C)O)C(=O)N[C@@H](C)C(=O)N[C@@H]([C@@H](C)O)C(=O)N1)[C@@H](C)O)C(=O)N1CCC[C@H]1C(=O)N[C@@H](CO)C(=O)N[C@@H](CO)C(=O)N[C@H](C(=O)N[C@@H](CC(N)=O)C(=O)N[C@H](C(=O)NCC(=O)N[C@@H](CO)C(=O)N[C@@H](CC(N)=O)C(=O)N[C@H](C(=O)N1CCC[C@H]1C(N)=O)[C@@H](C)O)C(C)C)[C@@H](C)O` [Example 14] ({C20 diacid-γGlu-γGlu}-KCNTATCATQRLAEFLRHSSPNFGAIPSSTNVGSNTP-NH2; disulfide 2-7), the “Ratio hCT/hAmylin funct.” value in test [1] (setting [5]) is on record as 1.6. The figures for the EC50 in test [1] (setting [11]) and in test [2] were 0.146 nM and 0.238 nM, respectively. The figures for the IC50 in test [3] and in test [4] were 0.196 nM and 0.432 nM, respectively. Further, in test [3] (setting [10]), the “Ratio hCT/hAmylin binding” value is given as 2.2.
With `CC[C@H](C)[C@H](NC(=O)[C@H](C)NC(=O)CNC(=O)[C@H](Cc1ccccc1)NC(=O)[C@H](CC(N)=O)NC(=O)[C@@H]1CCCN1C(=O)[C@H](CO)NC(=O)[C@H](CO)NC(=O)[C@H](Cc1c[nH]cn1)NC(=O)[C@H](CCCNC(=N)N)NC(=O)[C@H](CC(C)C)NC(=O)[C@H](Cc1ccccc1)NC(=O)[C@H](Cc1c[nH]cn1)NC(=O)[C@H](C)NC(=O)[C@H](CC(C)C)NC(=O)[C@H](CCCNC(=N)N)NC(=O)[C@H](CCC(N)=O)NC(=O)[C@@H](NC(=O)[C@H](C)NC(=O)[C@@H]1CSSC[C@H](NC(=O)[C@@H](N)CCCCNC(=O)CC[C@H](NC(=O)CCCCCCCCCCCCCCCCCCC(=O)O)C(=O)O)C(=O)N[C@@H](CC(N)=O)C(=O)N[C@@H]([C@@H](C)O)C(=O)N[C@@H](C)C(=O)N[C@@H]([C@@H](C)O)C(=O)N1)[C@@H](C)O)C(=O)N1CCC[C@H]1C(=O)N[C@@H](CO)C(=O)N[C@@H](CO)C(=O)N[C@H](C(=O)N[C@@H](CC(N)=O)C(=O)N[C@H](C(=O)NCC(=O)N1CCC[C@H]1C(=O)N[C@@H](CC(N)=O)C(=O)N[C@H](C(=O)N[C@@H](Cc1ccc(O)cc1)C(N)=O)[C@@H](C)O)C(C)C)[C@@H](C)O` [Example 67] (H-K([γGlu-C20 diacid])CNTATCATQRLAHFLRHSSPNFGAIPSSTNVGPNTY-NH2; disulfide 2-7), the “Ratio hCT/hAmylin funct.” value in test [1] (setting [5]), in test [1] (setting [6]), in test [1] (setting [7]) and in test [1] (setting [9]) was 5.2 in each case. The 50% effective concentration (EC50) is 0.069 nM in test [1] (setting [8]) and 0.354 nM in test [2]. Further, the concentration for half-maximal inhibition (IC50) in test [3] turned out to be 0.09 nM; in test [4] it was 4.63 nM.
Take `CC[C@H](C)[C@H](NC(=O)[C@H](C)NC(=O)CNC(=O)[C@H](Cc1ccccc1)NC(=O)[C@H](CC(N)=O)NC(=O)[C@@H]1CCCN1C(=O)[C@H](CO)NC(=O)[C@H](CO)NC(=O)[C@H](Cc1c[nH]cn1)NC(=O)[C@H](CCCNC(=N)N)NC(=O)[C@H](CC(C)C)NC(=O)[C@H](Cc1ccccc1)NC(=O)[C@H](CCCNC(=N)N)NC(=O)[C@H](C)NC(=O)[C@H](CC(C)C)NC(=O)[C@H](CCCNC(=N)N)NC(=O)[C@H](CCC(N)=O)NC(=O)[C@@H](NC(=O)[C@H](C)NC(=O)[C@@H]1CSSC[C@H](NC(=O)[C@@H](N)CCCCNC(=O)CC[C@H](NC(=O)CCCCCCCCCCCCCCCCCCC(=O)O)C(=O)O)C(=O)N[C@@H](CC(N)=O)C(=O)N[C@@H]([C@@H](C)O)C(=O)N[C@@H](C)C(=O)N[C@@H]([C@@H](C)O)C(=O)N1)[C@@H](C)O)C(=O)N1CCC[C@H]1C(=O)N[C@@H](CO)C(=O)N[C@@H](CO)C(=O)N[C@H](C(=O)N1CCC[C@H]1C(=O)N[C@H](C(=O)NCC(=O)N[C@@H](CO)C(=O)N[C@@H](CC(N)=O)C(=O)N[C@H](C(=O)N[C@@H](Cc1ccc(O)cc1)C(N)=O)[C@@H](C)O)C(C)C)[C@@H](C)O` [Example 63] (H-K([γGlu-C20 diacid])CNTATCATQRLARFLRHSSPNFGAIPSSTPVGSNTY-NH2; disulfide 2-7): the EC50 stood at 0.037 nM in test [1] (setting [11]) and 5.13 nM in test [2]. In addition, the concentration for half-maximal inhibition (IC50) in test [3] was determined as 0.825 nM; in test [4], 130 nM.
For `CC[C@H](C)[C@H](NC(=O)[C@H](C)NC(=O)CNC(=O)[C@H](Cc1ccccc1)NC(=O)[C@H](CC(N)=O)NC(=O)[C@@H]1CCCN1C(=O)[C@H](CO)NC(=O)[C@H](CO)NC(=O)[C@H](Cc1c[nH]cn1)NC(=O)[C@H](CCCNC(=N)N)NC(=O)[C@H](CC(C)C)NC(=O)[C@H](Cc1ccccc1)NC(=O)[C@H](CC(N)=O)NC(=O)[C@H](C)NC(=O)[C@H](CC(C)C)NC(=O)[C@H](CCCNC(=N)N)NC(=O)[C@H](CCC(N)=O)NC(=O)[C@@H](NC(=O)[C@H](C)NC(=O)[C@@H]1CSSC[C@H](NC(=O)[C@@H](N)CCCCNC(=O)CC[C@H](NC(=O)CCCCCCCCCCCCCCCCCCC(=O)O)C(=O)O)C(=O)N[C@@H](CC(N)=O)C(=O)N[C@@H]([C@@H](C)O)C(=O)N[C@@H](C)C(=O)N[C@@H]([C@@H](C)O)C(=O)N1)[C@@H](C)O)C(=O)N1CCC[C@H]1C(=O)N[C@@H](CO)C(=O)N[C@@H](CO)C(=O)N[C@H](C(=O)N[C@@H](CC(N)=O)C(=O)N[C@H](C(=O)NCC(=O)N[C@@H](CO)C(=O)N[C@@H](CCC(=O)O)C(=O)N[C@H](C(=O)N[C@@H](Cc1ccc(O)cc1)C(N)=O)[C@@H](C)O)C(C)C)[C@@H](C)O` [Example 27] the same measures were 0.133 nM, 3 nM, 0.837 nM and 34.5 nM.
